These results are taken from patent publication US20190160131A1, “METHOD FOR CELL REJUVENATION USING ROSA ROXBURGHII FRUIT EXTRACTS” (TCI CO., LTD, priority 2017, published 2019).

The assay relates to human skin fibroblast CCD-966SK. As to the kind of experiment: Chemical (etoposide)-induced telomere shortening, telomere length by qPCR. The format is cell-based. The settings on record: 30 μM etoposide only, 5 days of incubation, compared to control cells (FIG. 8). The method, then:
Telomere length is determined based on qPCR technique. First, genomic DNA samples were extracted from cells. Next, the genomic DNA samples (20 ng) were subjected to qPCR to obtain melting curves. The qPCR was performed with a PCR thermocycler using KAPA CYBR FAST qPCR Kit (2×) (KAPA Biosystems) and primers of the telomere and the single-copy 36B4 gene (Table 2). In addition, serially diluted standards of the telomere (10- to 10^6-fold dilutions starting from 60 pg) and the 36B4 gene (10- to 10^6-fold dilutions starting from 200 pg) were prepared and subjected to qPCR under the following reaction conditions to obtain standard curves (Ct/kb): a denaturation phase at 95° C. for 10 minutes followed by 40 cycles of denaturation (95° C.) for 15 seconds and annealing (60° C.) for 1 minute. The telomere standard was an oligonucleotide having 14 repeats of TTAGGG (SEQ ID NO: 7); the standard of 36B4 gene had the nucleotide sequence of SEQ ID NO:8. Lastly, the average length of telomere in the genomic DNA samples was determined from the aforementioned standard curves and the cycle threshold values of telomere and 36B4 gene in the genomic DNA samples.
The protective effect of Rosa roxburghii fruit water extract on chromosomal telomere was investigated in human skin fibroblast CCD-966SK. […]

Take `COc1cc([C@@H]2c3cc4c(cc3[C@@H](O[C@@H]3O[C@@H]5CO[C@@H](C)O[C@H]5[C@H](O)[C@H]3O)[C@H]3COC(=O)[C@H]23)OCO4)cc(OC)c1O` [etoposide]: the “relative length of telomeres” value is recorded as “significantly shortened”.
